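Interpolation was linear, between the two tested concentrations surrounding the appropriate level; five concentrations were tested over 48 hours in 96-well plates. Here, GI50 denotes the concentration required for 50% inhibition of growth.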 Activity calls are given as the source filed them. No stated cut-off is given here; in the data, active = GI50 up to about 1.1 µM and inactive = higher.
Columns and labels:
Assay in all cases: NCI-60 cell line screen, 48 h
[1] = system: MCF7
[2] = system: PC-3
[3] = system: MDA-MB-231
[4] = system: SK-OV-3
[5] = system: CAKI-1
[6] = system: RPMI-8226
[7] = system: SK-MEL-2
[8] = system: Malme-3M
[9] = system: SN12C
[10] = system: DU-145
[11] = system: RXF 393
[12] = system: COLO 205
[13] = system: 786-0
[14] = system: MDA-MB-435
[15] = system: SK-MEL-28
[16] = system: IGROV-1
[17] = system: TK-10
[18] = system: OVCAR-5
[19] = system: SNB-75

Measured: GI50

O=c1c(-c2ccc(O)cc2)coc2cc(OC3OC(CO)C(O)C(O)C3O)cc(O)c12 (stereo unspecified)
inactive: [1] > 10 µM | [2] 63.8 µM | [3] > 100 µM | [4] > 10 µM | [5] 60.4 µM | [6] 51.8 µM | [7] > 10 µM | [8] > 10 µM | [9] > 100 µM | [10] > 100 µM | [11] 40 µM | [12] > 10 µM | [13] 75.5 µM | [14] > 10 µM | [15] > 10 µM | [16] > 10 µM | [17] 33 µM | [18] > 10 µM | [19] 35.7 µM

COC(=O)C1=C(C)NC(=S)NC1c1ccc(N(CCCl)CCCl)cc1Cl (stereo unspecified)
inactive: [1] 16.7 µM | [2] 20.9 µM | [3] 21 µM | [4] > 100 µM | [5] 2 µM | [6] 1.33 µM | [7] 24.2 µM | [8] 3.04 µM | [9] 34.2 µM | [10] 12.4 µM | [11] > 34.9 µM | [12] 25.3 µM | [13] 51.3 µM | [14] 12.5 µM | [15] 29 µM | [16] 29.4 µM | [17] 32.4 µM | [18] 56.5 µM | [19] > 54.6 µM

CCOC(=O)c1cc2cc(C)cc(C(=O)c3ccc([N+](=O)[O-])cc3)c2[nH]1
inactive: [1] > 100 µM | [2] > 100 µM | [3] 38.5 µM | [4] > 100 µM | [5] > 100 µM | [6] > 100 µM | [7] > 100 µM | [8] > 100 µM | [9] > 100 µM | [10] > 100 µM | [11] 37.7 µM | [12] > 100 µM | [13] 86.7 µM | [14] > 100 µM | [15] > 100 µM | [16] > 100 µM | [17] > 100 µM | [18] > 100 µM | [19] 51.6 µM

CC12CN(CC[N+](C)(C)C)CC1(C)C1CCC2O1 (stereo unspecified)
inactive: [1] > 100 µM | [2] > 100 µM | [3] > 100 µM | [4] > 100 µM | [5] > 100 µM | [6] > 100 µM | [7] > 100 µM | [8] > 100 µM | [9] > 100 µM | [10] > 100 µM | [11] > 100 µM | [12] > 100 µM | [13] > 100 µM | [14] > 100 µM | [15] > 100 µM | [16] > 100 µM | [17] > 100 µM | [18] > 100 µM | [19] > 100 µM
